# Measured values from patent US20050238580A1 (priority 2002, published 2005).
# Columns and labels:
# intestinal lactase [1] = target: T1, intestinal lactase (Rattus norvegicus, UniProt Q02401); experiment: Xylose in blood plasma after oral 4-galactosyl-xylose versus intestinal lactase activity in unweaned rats; assay type: in vivo
# T1 construct: hydrolysis of the 4-galactosyl-xylose administered is detected by the action of intestinal lactase; from tissue; host or cells: small-intestinal mucous membrane of living unweaned rats (in vivo); activity also measured post mortem in mucosa homogenate
# T1 sequence (Q02401 868-1928): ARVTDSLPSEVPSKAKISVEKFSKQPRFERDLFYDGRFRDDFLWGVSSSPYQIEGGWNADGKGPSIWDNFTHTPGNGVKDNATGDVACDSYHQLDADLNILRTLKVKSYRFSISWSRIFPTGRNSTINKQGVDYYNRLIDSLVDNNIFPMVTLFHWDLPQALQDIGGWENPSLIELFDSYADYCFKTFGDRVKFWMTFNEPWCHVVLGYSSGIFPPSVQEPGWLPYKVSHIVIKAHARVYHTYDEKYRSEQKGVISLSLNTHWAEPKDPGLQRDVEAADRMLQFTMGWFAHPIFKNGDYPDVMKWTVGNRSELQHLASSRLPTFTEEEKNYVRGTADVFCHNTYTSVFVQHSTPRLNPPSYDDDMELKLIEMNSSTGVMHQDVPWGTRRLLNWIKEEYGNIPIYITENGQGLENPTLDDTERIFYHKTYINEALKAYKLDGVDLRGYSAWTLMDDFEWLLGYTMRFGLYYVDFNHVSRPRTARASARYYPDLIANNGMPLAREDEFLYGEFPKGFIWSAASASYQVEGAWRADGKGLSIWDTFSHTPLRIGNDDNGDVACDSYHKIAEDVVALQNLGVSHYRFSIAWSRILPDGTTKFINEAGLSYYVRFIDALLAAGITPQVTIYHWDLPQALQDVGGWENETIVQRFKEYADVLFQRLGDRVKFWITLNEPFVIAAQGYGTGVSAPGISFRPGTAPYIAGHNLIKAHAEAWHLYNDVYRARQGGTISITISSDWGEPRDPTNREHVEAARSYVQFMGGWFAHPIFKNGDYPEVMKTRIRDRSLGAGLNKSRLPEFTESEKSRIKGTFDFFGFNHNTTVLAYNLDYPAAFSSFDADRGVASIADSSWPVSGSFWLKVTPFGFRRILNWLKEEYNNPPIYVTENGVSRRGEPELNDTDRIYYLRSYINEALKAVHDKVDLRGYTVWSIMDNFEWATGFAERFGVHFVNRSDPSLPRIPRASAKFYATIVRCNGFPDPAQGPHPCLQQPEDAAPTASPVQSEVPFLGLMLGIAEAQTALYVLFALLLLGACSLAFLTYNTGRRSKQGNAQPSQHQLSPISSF
# Description: Correlation between the excretion of xylose in urine and the presence of xylose in blood after oral administration of 4-galactosyl-xylose with intestinal lactase activity. This has been shown in unweaned rats by comparing during the growth of these animals the amount of xylose in plasma analyzed after orally administering to them 4-galactosyl-xylose with specific lactase activity evaluated postmortem in the intestinal mucous membrane. For this purpose, a group comprised of 60 12-day old unweaned rats belonging to two litters fasted for 6 hours by being separated from the mother. After this period of time passed, basal blood was extracted from each animal by means of a heart puncture and each rat was immediately administered 8 mg of 4-galactosyl-xylose diluted in 0.3 ml of distilled water by using an intraesophageal probe. 3 hours after the disaccharide was administered another blood sample was extracted. The blood plasma or supernatant fraction was obtained by centrifuging this sample and the xylose therein was titrated by calorimetric analysis with fluoroglucinol and using the plasma of the basal blood as the target. Immediately after the blood was extracted, four of the animals were sacrificed and the lactase activity in the intestinal mucous membrane was directly evaluated in the same manner as the one described in Example 1. […]
# intestinal lactase [2] = target: T2, intestinal lactase (Homo sapiens, UniProt P09848); experiment: Xylose in blood plasma of human volunteers after oral 4-galactosyl-xylose, colorimetric titration with fluoroglucinol; assay type: in vivo
# T2 construct: from tissue; host or cells: small-intestinal mucous membrane of living adult human volunteers (in vivo)
# T2 sequence (P09848 869-1927): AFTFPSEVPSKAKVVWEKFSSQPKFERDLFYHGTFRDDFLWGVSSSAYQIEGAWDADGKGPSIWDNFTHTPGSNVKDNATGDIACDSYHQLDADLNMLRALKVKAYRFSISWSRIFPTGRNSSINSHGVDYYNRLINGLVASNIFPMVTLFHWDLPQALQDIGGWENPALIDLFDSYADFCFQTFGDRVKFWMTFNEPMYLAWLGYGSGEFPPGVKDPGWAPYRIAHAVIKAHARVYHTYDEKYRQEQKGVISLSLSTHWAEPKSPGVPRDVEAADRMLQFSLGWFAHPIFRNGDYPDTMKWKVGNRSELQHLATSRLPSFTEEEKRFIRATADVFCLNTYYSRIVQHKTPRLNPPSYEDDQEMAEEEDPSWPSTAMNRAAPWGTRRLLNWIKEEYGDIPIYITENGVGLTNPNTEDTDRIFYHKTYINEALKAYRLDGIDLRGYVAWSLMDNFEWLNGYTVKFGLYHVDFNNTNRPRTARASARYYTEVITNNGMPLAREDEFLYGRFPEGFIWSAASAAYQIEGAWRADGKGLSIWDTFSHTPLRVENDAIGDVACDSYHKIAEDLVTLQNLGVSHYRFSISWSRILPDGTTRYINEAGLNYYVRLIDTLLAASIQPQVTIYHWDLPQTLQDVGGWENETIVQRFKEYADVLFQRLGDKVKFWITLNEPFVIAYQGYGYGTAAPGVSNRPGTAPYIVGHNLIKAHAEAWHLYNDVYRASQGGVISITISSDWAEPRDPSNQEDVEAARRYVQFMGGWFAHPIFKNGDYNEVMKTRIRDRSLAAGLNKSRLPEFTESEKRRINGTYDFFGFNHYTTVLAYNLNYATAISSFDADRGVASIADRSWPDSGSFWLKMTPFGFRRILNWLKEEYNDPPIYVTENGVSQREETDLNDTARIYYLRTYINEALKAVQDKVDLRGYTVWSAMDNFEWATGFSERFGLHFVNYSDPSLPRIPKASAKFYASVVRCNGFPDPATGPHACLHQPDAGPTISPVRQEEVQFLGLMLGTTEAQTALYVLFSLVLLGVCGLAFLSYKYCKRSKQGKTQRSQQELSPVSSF
# Description: Oral administration of 3 g of 4-galactosyl-xylose to adult human volunteers with lactose tolerance gave rise to the gradual presence of xylose in blood plasma titrated calorimetrically with fluoroglucinol, that reached a maximum about 2 hours after the intake of the disaccharide. Oral administration of the same amount of 4-galactosyl-xylose to an adult human volunteer with lactose intolerance diagnosed as hypolactasic produced a significant reduction in the amount of xylose evaluated in blood plasma of this individual two hours after the intake of the disaccharide.
# The evaluation of xylose in blood after the oral administration of 4-galactosyl-xylose permits non-invasive diagnosis of intestinal lactase deficiency. This has been shown by administering 3 g of 4-galactosyl-xylose to two volunteers with lactose tolerance [individual 1, Example 17 and individual 2, Example 18 (these individuals were also studied in Examples 3 to 6)] and to the hypolactasic individual 12 with lactose intolerance [Example 19 (this individual was also studied in examples 12 and 15]). Xylose was titrated colorimetrically with fluoroglucinol in blood plasma of blood samples obtained from these individuals prior to the intake of the disaccharide and after the intake thereof at approximately 1 hour intervals for 6 hours: in the hypolactasic individual a basal blood sample and another blood sample 2 hours after the intake of the 4-galactosyl-xylose disaccharide were taken. […] In view of the amount of xylose detected in the individual with lactose intolerance 2 hours after the intake of 4-galactosyl-xylose, 0.48 μg/100 μl of plasma and the sensitivity of the titration (minimum detection limit of xylose with fluoroglucinol of […]), the minimum volume of serum or plasma to reliably make the measurement is estimated to be 50 μl, which is equivalent to 0.2 ml of blood (2 to 3 drops).
compound,measurement,setting,value
OCC1O[C@@H](O[C@@H]2COC(O)C(O)[C@H]2O)C(O)[C@@H](O)[C@H]1O (some centres unmarked),linear correlation coefficient (r) between xylose in blood plasma and intestinal lactase activity,"intestinal lactase [1]; unweaned rats aged 12 to 35 days, 8 mg oral, plasma 3 hours after administration",0.98
same,dose dependence of amount of xylose in plasma,"intestinal lactase [1]; unweaned rats, oral doses between 4 and 16 mg in 0.3 ml of water",increases with the increase of the amount of 4-galactosyl-xylose
same,"reduction of xylose in plasma, individual 12 versus individual 1","intestinal lactase [2]; 3 g oral, 2 hours",72%
same,"reduction of xylose in plasma, individual 12 versus individual 2","intestinal lactase [2]; 3 g oral, 2 hours",75%
same,xylose in blood plasma 2 hours after intake,"intestinal lactase [2]; hypolactasic individual 12, 3 g oral",0.48 μg/100 μl of plasma
same,xylose in blood plasma in a similar period of time (2 hours),"intestinal lactase [2]; individual 1 with lactose tolerance, 3 g oral",1.72 μg/100 ml of plasma
same,xylose in blood plasma in a similar period of time (2 hours),"intestinal lactase [2]; individual 2 with lactose tolerance, 3 g oral",1.95 μg/100 ml of plasma
same,xylose in blood plasma after 6 hours,"intestinal lactase [2]; individuals 1 and 2 with lactose tolerance, 3 g oral",undetectable
